Test results taken from paper PMC8001353, “Tryptophanol-Derived Oxazolopyrrolidone Lactams as Potential Anticancer Agents against Gastric Adenocarcinoma” (Pharmaceuticals, 2021).

Assays:
[1] = tested on: A-549 (lung carcinoma); assay: MTT cytotoxicity assay in A-549; assay type: cell-based; conditions: Homo sapiens, A549, 48 h incubation, mean ± SD
Procedure: (§1) The cytotoxicity was assessed in different cell lines with the endpoint MTT, using previously reported procedure. The following cells were obtained from the American Type Culture Collection: human embryonic kidney epithelial cell line (HEK 293T, ATCC HBT-22™), breast cancer cell line (MDA-MB-231, ATCC HTB-26™), osteosarcoma cell line (MG-63, ATCC CRL-1427™), gastric adenocarcinoma cell line (AGS, ATTC CRL-1739TM), prostate cancer cell line (DU-145, ATTC HTB-81™), and lung carcinoma cell line (A-549, ATCC CCL-185™). All cell lines were seeded at 2 × 10^4 cells/well with exception of A-549 cell line, which was seeded at 5 × 10^3 cells/well.

[2] = tested on: caspase 3/7 activity in AGS cells; assay: Caspase 3/7 activity assay (Ac-DEVD-AMC fluorimetric) in AGS cells; assay type: cell-based, human; conditions: 48 h incubation at 12.5 µM, vs control, p < 0.05
Procedure: The activity of caspase 3/7 was determined by fluorimetric assay based on the hydrolysis of the peptide substrate acetyl-Asp-Glu-ValAsp-7-amido-4-methylcoumarin (Ac-DEVD-AMC) by caspase 3/7 using a previously reported procedure.

[3] = tested on: human gastric adenocarcinoma (AGS) cell line; assay: MTT reduction assay, cell viability / cytotoxicity in AGS cell line; assay type: cell-based; conditions: for potency relative to hit 7c (times more potent / fold more active): AGS cells, ratio of IC50 values; for viability at 50 µM: Homo sapiens, AGS cell line, cell viability, MTT, 48 h incubation, mean ± SD, read-out: % CV at 50 µM
Procedure: as §1

[4] = tested on: MG-63 (osteosarcoma); assay: MTT cytotoxicity assay in MG-63; assay type: cell-based; conditions: Homo sapiens, 48 h incubation, mean ± SD
Procedure: as §1

[5] = Buffer (PBS pH 7.4) stability; assay type: physicochemical; conditions: PBS pH 7.4, 24 h incubation, 37 °C
Procedure: (§2) Human plasma was obtained from healthy volunteers and provided by Instituto Português do Sangue, Lisbon, Portugal. Buffer and human plasma stabilities were determined by standard methodology. Specifically, human plasma was centrifuged (5 min, 2000× g, room temperature) and, then, diluted 50% in PBS buffer (pH 7.4). The reactions were initiated by the addition of a solution of compound 7s (4 mM in DMSO, 25 µL) to 975 µL of plasma solution, at 37 °C, obtaining a final concentration of 100 µM. Solutions were stirred at 37 °C and 100 µL aliquots were collected at different time points: 0, 30, 60, 120, and 180 min (one additional aliquot was collected at 24 h). A cold reserpine solution (internal standard, 5 µM in acetonitrile, 300 µL) was then added to quench the reactions. Following centrifugation (10 min, 10,000× g, room temperature), the clear supernatants were stored at −20 °C until further analysis by HPLC-DAD. Assays were run in duplicate and procaine was used as a positive control for plasma stability. Additional control assays were conducted using PBS (pH 7.4) instead of a plasma solution. HPLC-DAD analysis was performed as previously described.

[6] = Metabolic stability in human liver microsomes with NADPH; assay type: in vitro ADME
Procedure: The evaluation of the metabolic stability of compound 7s was conducted in human liver microsomes (GIBCO^TM, 20 donors) by a previously reported procedure. Specifically, for a total incubation volume of 1 mL, in 100 mM phosphate buffer at pH 7.4, 7s (10 μM), human liver microsomes (0.8 mg protein/mL), NADPH (1 mM), and NADPH regeneration system (10 µL, Vivid® Regeneration System, 100×) were used. Nevirapine was used as a positive control. Additional control incubations were performed in the absence of 7s or NADPH, and using heat-denatured (90 °C, 15 min) microsomes. The resulting mixtures were incubated at 37 °C, and all assays were run in duplicate. Aliquots (50 µL) were collected at different time points (0, 5, 10, 20, 30, 40, 50, 60, 75, 90, 120, and 180 min and 24 h) and 50 µL of cold reserpine solution (2.5 µM in acetonitrile) was then added to quench the reactions. Following centrifugation (10 min, 10,000× g, 4 °C), the supernatants were stored at −20 °C until LC-MS and LC-HRMS/MS analysis.
Samples from the metabolic stability assay were analyzed by LC-MS using the experimental conditions previously described. The in vitro depletion half-life of 7s, t1/2, was calculated using Equation (1), assuming that the compound follows a first-order kinetic trend (see Supplementary Materials Figure S2). The “slope” was determined from linear fitting of the natural logarithm of the concentration of drug remaining plotted against time. (1) t1/2=ln2/slope
The intrinsic clearance was calculated using Equation (2) (2) CLint = 0.693/ t1/2 × mL incubation/mg microsomes × 45 mg microsomes/g liver × 26 g liver/Kg b.w.

[7] = Human plasma stability; assay type: in vitro ADME; conditions: human plasma diluted 50% in PBS, 24 h incubation, 37 °C, 100 µM
Procedure: as §2

Row | Compound | IC50 [1] | caspase 3/7 activity [2] | potency relative to hit 7c (times more potent / fold more active) [3] | viability at 50 µM [3] | IC50 [4] | stability in PBS [5] | in vitro metabolic stability [6] | intrinsic hepatic clearance (CLint) ([6]; calculated from t1/2 (Equation 2)) | half-life at 10 µM ([6]; pH 7.4, 10 µM, 37 °C, read-out: half-life (t1/2)) | stability in human plasma [7]
1 | O=C1CC[C@]2(c3ccc(-c4ccc(C(F)(F)F)cc4)cc3)OC[C@@H](Cc3c[nH]c4ccccc34)N12 [Compound 7o, (3R,7aR)-3-((1H-indol-3-yl)methyl)-7a-(4’-(trifluoromethyl)-[1,1’-biphenyl]-4-yl)tetrahydropyrrolo[2,1-b]oxazol-5(6H)-one] | > 60 µM | significant increase | 2.3 | 7 ± 1% | 26.8 ± 0.4 µM |  |  |  |  | 
2 | O=C1CC[C@]2(c3ccc(-c4ccc(Cl)c(Cl)c4)cc3)OC[C@@H](Cc3c[nH]c4ccccc34)N12 [Compound 7s, (3R,7aR)-3-((1H-indol-3-yl)methyl)-7a-(3’,4’-dichloro-[1,1’-biphenyl]-4-yl)tetrahydropyrrolo[2,1-b]oxazol-5(6H)-one] | > 60 µM | significant increase | 2.3 | 8 ± 1% |  | chemical stability in PBS conditions | moderately stable | 22.8 min⁻¹ mL⁻¹ kg⁻¹ | 45 min | stability in PBS conditions and under plasmatic enzyme activity
